From patent US8513381B2, “Melanocortin analogs with antimicrobial activity” (Fondazione IRCCS Ca' Granda-Ospedale Maggiore Policlinico, priority 2009, dated 2013)
Values after ≈ are worked out from the molar mass of the structure shown. Read-outs that look alike come from different tables or passages of the source. Non-standard residues stand in square brackets, D forms with d. Residues, ends and D or L forms follow the SMILES beside them. d2Nal = N[C@H](Cc1ccc2ccccc2c1)C(=O)O; Cha = N[C@@H](CC1CCCCC1)C(=O)O; Tle = CC(C)(C)[C@H](N)C(=O)O; Ac6c = NC1(C(=O)O)CCCCC1; Ac4c = NC1(C(=O)O)CCC1

Tests used:
[1] = system: C. albicans; format: cell-based, Candida albicans
Experimental: (§1) Two Candida albicans isolates were purchased from the ATCC (No. 24433 and 76615). The other yeast isolates were obtained from the collection of Fondazione Ospedale Maggiore Policlinico, Mangiagalli e Regina Elena, Milano. The collection included C. albicans (7 isolates), C. glabrata (3 isolates), and C. krusei (3 isolates). Antifungal susceptibility testing was performed using the broth microdilution method according to the NCCLS M27-A guidelines (National Committee for Clinical Laboratory Standards. 1997, Reference method for broth dilution antifungal susceptibility testing of yeasts and approved standard NCCLS document M27-A. National Committee for Clinical Laboratory Standards, Wayne, Pa.). The organisms were removed from frozen glycerol stock (10% sterile glycerol suspensions stored at −70° C.), subcultured onto Sabouraud's dextrose plates, and incubated at 35° C. After 48 h of incubation, the plates were inspected for purity. To prepare stationary growth phase yeast, a colony was taken from the agar plate and transferred into 5 mL Sabouraud-dextrose broth and incubated for 48 h at 35° C. Cells were centrifuged at 1,000×g for 10 min and the pellet was washed twice with distilled water. Cells were counted and suspended in RPMI 1640 medium buffered to pH 7.0 with 0.165 mol l^−1 morpholinepropanesulphonic acid (MOPS) buffer (Sigma) to obtain the two times test inoculum (1×10^3 to 5×10^3 CFU/mL). Each well of 96 U-shaped well-plates received 100 μl of each antifungal peptides in concentrations from 10^−4 to 7.8×10^−7 M and 100 μl of the two-times inoculum to a final yeast concentration of 0.5×10−[…] cells ml^−1
(§2) The MIC90, i.e. the minimum inhibitory concentrations endpoint determined as 90% reduction in turbidity measured using a spectrophotometer (Titertek multiscan at 690 nm wave length).

[2] = system: C. glabrata; format: cell-based, Candida glabrata
Experimental: as §1, §2

[3] = system: C. krusei; format: cell-based, Candida krusei
Experimental: as §1, §2

[4] = system: Pseudomonas aeruginosa ATCC 27853; format: cell-based
Experimental: (§3) The bacterial strains Pseudomonas aeruginosa ATCC 27853 and Staphylococcus aureus ATCC 29213 were grown in 2% Bacto Peptone water (Difco 1807-17-4) until growth was exponential. A standard microdilution technique with an inoculum of 2×10^6 CFU/mL was used. The minimal inhibitory concentration (MIC) of the peptides was determined in 1% Bacto Peptone water after incubation overnight at 37° C.

[5] = system: Staphylococcus aureus ATCC 29213; format: cell-based
Experimental: as §3

| Compound | MIC 90 at 48 hours ([1]; C. albicans 000954, 35° C.) | MIC 90 at 48 hours ([1]; C. albicans 011587, 35° C.) | MIC 90 at 48 hours ([1]; C. albicans 983201-R1, 35° C.) | MIC 90 at 48 hours ([1]; C. albicans 991185, 35° C.) | MIC 90 at 48 hours ([1]; C. albicans 994199, 35° C.) | MIC 90 at 48 hours ([1]; C. albicans 995147, 35° C.) | MIC 90 at 48 hours ([1]; C. albicans 995439, 35° C.) | MIC 90 at 48 hours ([1]; C. albicans ATCC 24433, 35° C.) | MIC 90 at 48 hours ([1]; C. albicans ATCC 76615, 35° C.) | MIC 90 at 48 hours ([2]; C. glabrata 18012, 35° C.) | MIC 90 at 48 hours ([2]; C. glabrata 995651, 35° C.) | MIC 90 at 48 hours ([2]; C. glabrata 995667, 35° C.) | MIC 90 at 48 hours ([3]; C. krusei 004490, 35° C.) | MIC 90 at 48 hours ([3]; C. krusei 991388, 35° C.) | MIC 90 at 48 hours ([3]; C. krusei 995668, 35° C.) | MIC 90 at 48 hours [1] [µg/mL] | MIC 90 at 48 hours [3] [µg/mL] | MIC 90 at 48 hours [2] [µg/mL] | MIC (minimal inhibitory concentration) [4] [µg/mL] | MIC (minimal inhibitory concentration) [5] [µg/mL] |
| --- | --- | --- | --- | --- | --- | --- | --- | --- | --- | --- | --- | --- | --- | --- | --- | --- | --- | --- | --- | --- |
| H-His-D(2)-Nal-Arg-Trp-β-AA-Lys-Phe-Val-NH2 [MSH0710] | no | no | no | no | no | no | no | no | no | no | no | no | no | no | no |  |  |  |  |  |
| CC(C)[C@H](NC(=O)[C@H](Cc1ccccc1)NC(=O)[C@H](CCCCN)NC(=O)C1(NC(=O)[C@H](Cc2c[nH]c3ccccc23)NC(=O)[C@H](CCCNC(=N)N)NC(=O)[C@@H](Cc2ccc3ccccc3c2)NC(=O)[C@@H](N)Cc2c[nH]cn2)CCCCC1)C(N)=O [MSH0712, H-His-D(2)-Nal-Arg-Trp-Aoca-Lys-Phe-Val-NH2] (H-H[d2Nal]RW[Ac6c]KFV-NH2) |  |  |  |  |  |  |  |  |  | no | no | no |  |  |  | 60 (≈ 50.3 µM) |  |  |  |  |
| CC(C)[C@H](NC(=O)[C@H](Cc1ccccc1)NC(=O)[C@H](CCCCN)NC(=O)[C@H](Cc1ccccc1)NC(=O)[C@H](Cc1c[nH]c2ccccc12)NC(=O)[C@H](CCCNC(=N)N)NC(=O)[C@@H](Cc1ccc2ccccc2c1)NC(=O)[C@@H](N)Cc1c[nH]cn1)C(N)=O [MSH0713, H-His-D(2)-Nal-Arg-Trp-Phe-Lys-Phe-Val-NH2] (H-H[d2Nal]RWFKFV-NH2) |  |  |  |  |  |  |  |  |  | no | no | no |  |  | no |  | 122 (≈ 100 µM) |  |  |  |
| CC(C)[C@H](NC(=O)[C@H](Cc1ccccc1)NC(=O)[C@H](CCCCN)NC(=O)C1(NC(=O)[C@H](Cc2c[nH]c3ccccc23)NC(=O)[C@H](CCCNC(=N)N)NC(=O)[C@@H](Cc2ccc3ccccc3c2)NC(=O)[C@@H](N)Cc2c[nH]cn2)CCC1)C(N)=O [MSH0709, H-His-D(2)-Nal-Arg-Trp-Cybu-Lys-Phe-Val-NH2] (H-H[d2Nal]RW[Ac4c]KFV-NH2) | no |  | no |  |  | no |  | no | no | no | no | no |  |  |  | 117 (≈ 100 µM) | 117 (≈ 100 µM) |  |  |  |
| CC(C)[C@H](NC(=O)[C@H](Cc1ccccc1)NC(=O)[C@H](CCCCN)NC(=O)[C@H](CC1CCCCC1)NC(=O)[C@H](Cc1c[nH]c2ccccc12)NC(=O)[C@H](CCCNC(=N)N)NC(=O)[C@@H](Cc1ccc2ccccc2c1)NC(=O)[C@@H](N)Cc1c[nH]cn1)C(N)=O [MSH0704, H-His-D(2)-Nal-Arg-Trp-Cha-Lys-Phe-Val-NH2] (H-H[d2Nal]RW[Cha]KFV-NH2) |  |  |  |  |  |  |  |  |  |  |  |  |  |  |  |  |  | 122 (≈ 99.9 µM) | 61 (≈ 49.9 µM) | 31 (≈ 25.4 µM) |
| CC(C)[C@H](NC(=O)[C@H](Cc1ccccc1)NC(=O)[C@H](CCCCN)NC(=O)[C@@H](NC(=O)[C@H](Cc1c[nH]c2ccccc12)NC(=O)[C@H](CCCNC(=N)N)NC(=O)[C@@H](Cc1ccc2ccccc2c1)NC(=O)[C@@H](N)Cc1c[nH]cn1)C(C)(C)C)C(N)=O [MSH0707, H-His-D(2)-Nal-Arg-Trp-tBuGly-Lys-Phe-Val-NH2] (H-H[d2Nal]RW[Tle]KFV-NH2) | no | no | no | no | no | no |  | no | no | no | no | no |  |  | no | 118 (≈ 99.9 µM) | 118 (≈ 99.9 µM) |  |  |  |
